Measurements reported in PMC12271471, “Direct synthesis of mycophenolic acid aryl esters with antioxidant and antiproliferative properties” (Scientific Reports, 2025).

Tested on: AsPC-1 cells (human pancreatic cancer cells)
Assay: MTT cytotoxicity assay on AsPC-1 cell line
Format: cell-based
Settings: ASPC1, 72 h treatment, n = 3, mean ± SD
Experimental: Table 2 presents the concentration of the tested compounds, namely: P4, P7, MP9, MPA, MMF, and gemcitabine (GEM; a standard), which inhibited the proliferation of AsPC-1 cells (human pancreatic cancer cells) by 50% (expressed as IC50 values) compared to the control. Cells were treated with compounds for 72 h and then a colorimetric MTT assay was performed. A graphical representation of these values can be seen in ESI Fig. S1.
Biological evaluation — AsPC-1 cell line
AsPC-1 pancreatic cancer cells (purchased from the American Type Culture Collection, ATCC, Manassas, VA, USA) were maintained in RPMI 1640 medium (Sigma-Aldrich, St Louis, MO, USA), supplemented with heat-inactivated 10% fetal bovine serum (FBS; Biowest, Riverside, MO, USA), 100 µg/mL streptomycin, and 100 units/mL penicillin. Cells were incubated in a humidified atmosphere of 5% CO2 at 37°C. All experiments were performed on cells in a logarithmic growth phase.
To investigate the effect of the tested compounds on cell viability, a colorimetric analysis was performed using MTT (3-(4,5-Dimethyl-2-thiazolyl)-2,5-diphenyl-2H-tetrazolium bromide, Sigma-Aldrich, St Louis, MO, USA) based on the reduction of this yellow salt in metabolically active cells to purple formazan crystals. Cells were seeded onto 96-well plates at 2∙10^3 cells/well and after 24 h incubation for cell attachment, cells were treated with various concentrations of tested compounds and gemcitabine (positive control) up to 50 µM. After 72 hours of incubation, 20 µL MTT at a concentration of 4 mg/mL was added to each well for 3-4 hours. The culture medium was then aspirated and formazan crystals were dissolved in DMSO. The absorbance of the solutions was measured at 540 nm using an iMark Microplate Absorbance Reader (Bio-Rad, Hercules, CA, USA). The drug concentrations required to inhibit cell growth by 50% (IC50) compared to untreated control cells were determined from curves plotting survival as a function of dose. Results were obtained from at least three independent […]
Statistical analysis of MTT cytotoxicity assay results was performed using GraphPad Prism 5.0 by two-tailed unpaired Student’s t-test. Differences p < 0.05 between MPA and its derivatives and gemcitabine were considered statistically significant according to the following criteria: * p < 0.05, ** p <

| Compound | IC50 [nM] |
| --- | --- |
| COc1c(C)c2c(c(O)c1C/C=C(\C)CCC(=O)O)C(=O)OC2 [MPA, Mycophenolic acid] | 1740 ± 259 |
| COc1c(C)c2c(c(O)c1C/C=C(\C)CCC(=O)OCCN1CCOCC1)C(=O)OC2 [MMF, mycophenolate mofetil, reference compound] | 2030 ± 42 |
| C/C=C/c1ccc(OC(=O)CC/C(C)=C/Cc2c(O)c3c(c(C)c2OC)COC3=O)c(OC)c1 [MP9] | 3810 |
| COC(=O)/C=C/c1ccccc1OC(=O)CC/C(C)=C/Cc1c(O)c2c(c(C)c1OC)COC2=O [P4] | 2870 |
| COc1c(C)c2c(c(O)c1C/C=C(\C)CCC(=O)Oc1ccc(CCC(C)=O)cc1)C(=O)OC2 [P7] | 2450 |
